Key:
[1] = target: PI3K-δ (PI3K(p1108/p857) (h)) (Homo sapiens, UniProt O00329); assay: Evaluation of inhibitory activity against PI3K-δ (HTRF kinase assay); format: biochemical; conditions: for inhibition at 0.01 µM: compound concentration 0.01 μM, read-out: EXP_VALUE(% Inhibition) PI3K-δ 0.01 μM; for inhibition at 0.1 µM: compound concentration 0.1 μM, read-out: EXP_VALUE(% Inhibition) PI3K-δ 0.1 μM
Summary of the method: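 HTRF read-out (665/620 nm ratio ×10000) used Eu-labelled anti-GST, GST-tagged GRP1 PH domain and streptavidin-allophycocyanin after EDTA/PIP3 stop.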

DNA-PK(h) = DNA-PK(h) (Homo sapiens, UniProt P78527); assay: Evaluation of inhibitory activity against DNA-PK (HTRF kinase assay, GST-cMyc-p53 substrate); format: biochemical; conditions: for inhibition at 0.01 µM: compound concentration 0.01 μM, read-out: EXP_VALUE(% Inhibition) DNA-PK(h) 0.01 μM; for inhibition at 0.1 µM: compound concentration 0.1 μM, read-out: EXP_VALUE(% Inhibition) DNA-PK(h) 0.1 μM
Summary of the method: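 Human DNA-PK with 50 μM GST-cMyc-p53 substrate; reaction started with Mg/ATP, run 30 min at room temperature, stopped with EDTA. Phospho-Ser15 p53 detected by HTRF (Eu anti-phospho-Ser15, d2 anti-GST), signal = 10000×(Em 665/Em 620).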

Chain of PI3K-δ (PI3K(p1108/p857) (h)) (O00329 whole entry, the tested form may be a part): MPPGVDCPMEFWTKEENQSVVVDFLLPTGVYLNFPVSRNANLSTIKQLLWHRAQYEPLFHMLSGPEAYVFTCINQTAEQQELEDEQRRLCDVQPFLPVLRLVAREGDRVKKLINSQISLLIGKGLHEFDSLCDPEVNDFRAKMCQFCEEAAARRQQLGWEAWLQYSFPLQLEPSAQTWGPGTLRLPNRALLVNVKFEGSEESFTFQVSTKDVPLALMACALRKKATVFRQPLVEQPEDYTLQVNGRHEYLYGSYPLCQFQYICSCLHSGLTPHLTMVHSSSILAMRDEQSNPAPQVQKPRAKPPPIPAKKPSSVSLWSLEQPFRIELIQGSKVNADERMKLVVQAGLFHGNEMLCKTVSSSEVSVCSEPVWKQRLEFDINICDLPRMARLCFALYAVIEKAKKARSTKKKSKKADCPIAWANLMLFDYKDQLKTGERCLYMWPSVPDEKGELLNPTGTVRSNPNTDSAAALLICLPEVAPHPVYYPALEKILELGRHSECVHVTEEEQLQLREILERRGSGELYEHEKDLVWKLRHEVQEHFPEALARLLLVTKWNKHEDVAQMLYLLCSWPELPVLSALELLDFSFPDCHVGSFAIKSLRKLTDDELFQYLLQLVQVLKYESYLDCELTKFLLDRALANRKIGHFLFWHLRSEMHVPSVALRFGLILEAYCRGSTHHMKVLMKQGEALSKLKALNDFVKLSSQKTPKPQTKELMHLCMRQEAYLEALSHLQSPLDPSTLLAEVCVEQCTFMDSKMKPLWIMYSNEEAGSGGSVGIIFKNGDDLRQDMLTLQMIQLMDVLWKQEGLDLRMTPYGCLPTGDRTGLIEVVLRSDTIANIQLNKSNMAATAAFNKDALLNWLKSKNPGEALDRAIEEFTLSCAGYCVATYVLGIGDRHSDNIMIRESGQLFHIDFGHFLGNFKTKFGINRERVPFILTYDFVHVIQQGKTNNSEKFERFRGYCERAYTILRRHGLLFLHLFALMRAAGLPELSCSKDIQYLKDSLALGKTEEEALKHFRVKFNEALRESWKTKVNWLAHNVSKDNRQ
Chain of PI3K-δ (PI3K(p1108/p857) (h)) (P27986 whole entry partner, the tested form may be a part): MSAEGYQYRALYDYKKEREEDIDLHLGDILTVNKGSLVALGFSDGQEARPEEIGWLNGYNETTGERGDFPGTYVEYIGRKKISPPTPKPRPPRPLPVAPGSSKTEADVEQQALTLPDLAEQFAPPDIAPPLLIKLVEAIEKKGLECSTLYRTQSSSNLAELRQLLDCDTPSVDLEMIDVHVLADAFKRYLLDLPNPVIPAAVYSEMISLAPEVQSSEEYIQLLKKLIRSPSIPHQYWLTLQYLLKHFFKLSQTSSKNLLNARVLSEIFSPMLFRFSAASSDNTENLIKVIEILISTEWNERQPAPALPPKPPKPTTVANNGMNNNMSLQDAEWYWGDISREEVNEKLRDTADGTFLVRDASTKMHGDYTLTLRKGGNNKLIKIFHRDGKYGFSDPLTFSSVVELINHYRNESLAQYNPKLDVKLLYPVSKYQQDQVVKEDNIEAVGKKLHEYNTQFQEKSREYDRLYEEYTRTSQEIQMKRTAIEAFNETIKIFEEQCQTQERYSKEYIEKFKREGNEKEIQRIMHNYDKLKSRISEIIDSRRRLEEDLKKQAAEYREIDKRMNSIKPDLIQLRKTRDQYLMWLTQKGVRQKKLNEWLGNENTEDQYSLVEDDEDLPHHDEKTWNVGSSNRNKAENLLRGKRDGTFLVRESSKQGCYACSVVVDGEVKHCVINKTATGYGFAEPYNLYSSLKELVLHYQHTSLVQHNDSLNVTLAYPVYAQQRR

Row | SMILES | inhibition at 0.01 µM [1] [%] | inhibition at 0.1 µM [1] [%] | inhibition at 0.01 µM (DNA-PK(h)) [%] | inhibition at 0.1 µM (DNA-PK(h)) [%]
1 | C[C@H](Nc1ncnc2[nH]ccc(=O)c12)c1c(Cl)c2cccc(C#Cc3cncs3)c2c(=O)n1-c1ccccc1 [Example 313, (S)-4-((1-(4-chloro-1-oxo-2-phenyl-8-(thiazol-5-ylethynyl)-1,2-dihydroisoquinolin-3-yl)ethyl)amino)pyrido[2,3-d]pyrimidin-5(8H)-one] | 20.2 | 55 | 47.2 | 84.6
2 | C[C@H](Nc1ncnc2[nH]ccc(=O)c12)c1c(Cl)c2cccc(C#Cc3ccc(N(C)C)cc3)c2c(=O)n1-c1ccccc1 [Example 314, (S)-4-((1-(4-chloro-8-((4-(dimethylamino)phenyl)ethynyl)-1-oxo-2-phenyl-1,2-dihydroisoquinolin-3-yl)ethyl)amino)-5-oxo-5,8-dihydropyrido[2,3-d]pyrimidin-5(8H)-one] | 76 | 96 | 25 | 75
3 | C[C@H](Nc1ncnc2[nH]ccc(=O)c12)c1c(Cl)c2cccc(C#Cc3ccc(C(F)(F)F)cc3)c2c(=O)n1-c1ccccc1 [Example 315, (S)-4-((1-(4-chloro-1-oxo-2-phenyl-8-((4-(trifluoromethyl)phenyl)ethynyl)-1,2-dihydroisoquinolin-3-yl)ethyl)amino)-5-oxo-5,8-dihydropyrido[2,3-d]pyrimidin-5(8H)-one, 2,2,2-trifluoroacetate] | 39 | 89 | 18 | 62
4 | C[C@H](Nc1ncnc2[nH]ccc(=O)c12)c1c(Cl)c2cccc(C#Cc3cncnc3)c2c(=O)n1-c1ccccc1 [Example 316, (S)-4-((1-(4-chloro-1-oxo-2-phenyl-8-(pyrimidin-5-ylethynyl)-1,2-dihydroisoquinolin-3-yl)ethyl)amino)pyrido[2,3-d]pyrimidin-5(8H)-one] | 43 | 91 | 88 | 99
5 | C[C@H](Nc1ncnc2[nH]ccc(=O)c12)c1c(Cl)c2cccc(-c3nc4ccccc4o3)c2c(=O)n1-c1ccccc1 [Example 317, (S)-4-((1-(8-(benzo[d]oxazol-2-yl)-4-chloro-1-oxo-2-phenyl-1,2-dihydroisoquinolin-3-yl)ethyl)amino)pyrido[2,3-d]pyrimidin-5(8H)-one] | 45 | 86 | 64 | 96
6 | C[C@H](Nc1ncnc2[nH]ccc(=O)c12)c1cc2cccc(-c3nc4ccccc4o3)c2c(=O)n1-c1ccccc1 [Example 318, (S)-4-((1-(8-(benzo[d]oxazol-2-yl)-1-oxo-2-phenyl-1,2-dihydroisoquinolin-3-yl)ethyl)amino)pyrido[2,3-d]pyrimidin-5(8H)-one] | 23 | 65 | 19 | 35
7 | C[C@H](Nc1ncnc2[nH]ccc(=O)c12)c1c(Cl)c2cccc(N(C)Cc3ccccc3)c2c(=O)n1-c1ccccc1 [Example 319, (S)-4-((1-(8-(benzyl(methyl)amino)-4-chloro-1-oxo-2-phenyl-1,2-dihydroisoquinolin-3-yl)ethyl)amino)pyrido[2,3-d]pyrimidin-5(8H)-one] | 18 | 62 | 7 | 25
8 | C[C@H](Nc1ncnc2[nH]ccc(=O)c12)c1c(Cl)c2cccc(-n3cccn3)c2c(=O)n1-c1ccccc1 [Example 320, (S)-4-((1-(4-chloro-1-oxo-2-phenyl-8-(1H-pyrazol-1-yl)-1,2-dihydroisoquinolin-3-yl)ethyl)amino)pyrido[2,3-d]pyrimidin-5(8H)-one] | 35.9 | 83.3 | 12.3 | 57.3
9 | C[C@H](Nc1ncnc2[nH]ccc(=O)c12)c1c(Cl)c2cccc(NCc3ccccc3)c2c(=O)n1-c1ccccc1 [Example 321, (S)-4-((1-(8-(benzylamino)-4-chloro-1-oxo-2-phenyl-1,2-dihydroisoquinolin-3-yl)ethyl)amino)pyrido[2,3-d]pyrimidin-5(8H)-one] | 22 | 68 | 10 | 34
10 | C[C@H](Nc1ncnc2[nH]ccc(=O)c12)c1c(Cl)c2cccc(N(C)C3CCCCC3)c2c(=O)n1-c1ccccc1 [Example 322, (S)-4-((1-(4-chloro-8-(cyclohexyl(methyl)amino)-1-oxo-2-phenyl-1,2-dihydroisoquinolin-3-yl)ethyl)amino)pyrido[2,3-d]pyrimidin-5(8H)-one] | 11 | 30 | -11 | 21

Continued, values first:

Row | inhibition at 0.01 µM [1] [%] | inhibition at 0.1 µM [1] [%] | inhibition at 0.01 µM (DNA-PK(h)) [%] | inhibition at 0.1 µM (DNA-PK(h)) [%] | SMILES
11 | 22 | 65 | 8 | 28 | C[C@H](Nc1ncnc2[nH]ccc(=O)c12)c1c(Cl)c2cccc(NC3CC3)c2c(=O)n1-c1ccccc1 [Example 323, (S)-4-((1-(4-chloro-8-(cyclopropylamino)-1-oxo-2-phenyl-1,2-dihydroisoquinolin-3-yl)ethyl)amino)pyrido[2,3-d]pyrimidin-5(8H)-one]
12 | 19 | 58 | 30 | 74 | C[C@H](Nc1ncnc2[nH]ccc(=O)c12)c1c(Cl)c2cccc(NCc3cccnc3)c2c(=O)n1-c1ccccc1 [Example 324, (S)-4-((1-(4-chloro-1-oxo-2-phenyl-8-((pyridin-3-ylmethyl)amino)-1,2-dihydroisoquinolin-3-yl)ethyl)amino)pyrido[2,3-d]pyrimidin-5(8H)-one]
13 | 22 | 65 | 12 | 59 | CCNc1cccc2c(Cl)c([C@H](C)Nc3ncnc4[nH]ccc(=O)c34)n(-c3ccccc3)c(=O)c12 [Example 325, (S)-4-((1-(4-chloro-8-(ethylamino)-1-oxo-2-phenyl-1,2-dihydroisoquinolin-3-yl)ethyl)amino)pyrido[2,3-d]pyrimidin-5(8H)-one]
14 | 17 | 51 | -4 | 24 | C[C@H](Nc1ncnc2[nH]ccc(=O)c12)c1c(Cl)c2cccc(N3CCN(c4ccccc4)CC3)c2c(=O)n1-c1ccccc1 [Example 326, (S)-4-((1-(4-chloro-1-oxo-2-phenyl-8-(4-phenylpiperazin-1-yl)-1,2-dihydroisoquinolin-3-yl)ethyl)amino)pyrido[2,3-d]pyrimidin-5(8H)-one]
15 | 4 | 25 | -13 | 8 | C[C@H](Nc1ncnc2[nH]ccc(=O)c12)c1c(Cl)c2cccc(N3C[C@]4(C)C[C@H]3CC(C)(C)C4)c2c(=O)n1-c1ccccc1 [Example 327, 4-(((S)-1-(4-chloro-1-oxo-2-phenyl-8-((1S,5R)-1,3,3-trimethyl-6-azabicyclo[3.2.1]octan-6-yl)-1,2-dihydroisoquinolin-3-yl)ethyl)amino)pyrido[2,3-d]pyrimidin-5(8H)-one]
16 | 17 | 42 | 2 | 12 | C[C@H](Nc1ncnc2[nH]ccc(=O)c12)c1c(Cl)c2cccc(N3CCC4CCCCC4C3)c2c(=O)n1-c1ccccc1 (stereo partly drawn) [Example 328, 4′-chloro-3′-((S)-1-((5-oxo-5,8-dihydropyrido[2,3-d]pyrimidin-4-yl)amino)ethyl)-2′-phenyl-3,4,4a,5,6,7,8,8a-octahydro-1H-[2,8′-biisoquinolin]-1′(2′H)-one]
17 | 19 | 55 | 4 | 23 | Cc1ccc2c(c1)CN(c1cccc3c(Cl)c([C@H](C)Nc4ncnc5[nH]ccc(=O)c45)n(-c4ccccc4)c(=O)c13)CC2 [Example 329, (S)-4′-chloro-7-methyl-3′-(1-((5-oxo-5,8-dihydropyrido[2,3-d]pyrimidin-4-yl)amino)ethyl)-2′-phenyl-3,4-dihydro-1H-[2,8′-biisoquinolin]-1′(2′H)-one]
18 | 30 | 72 | 10 | 32 | C[C@H](Nc1ncnc2[nH]ccc(=O)c12)c1c(Cl)c2cccc(N3CCc4ccsc4C3)c2c(=O)n1-c1ccccc1 [Example 330, (S)-4-((1-(4-chloro-8-(4,7-dihydrothieno[2,3-c]pyridin-6(5H)-yl)-1-oxo-2-phenyl-1,2-dihydroisoquinolin-3-yl)ethyl)amino)pyrido[2,3-d]pyrimidin-5(8H)-one]
19 | 24 | 74 | 31 | 76 | C[C@H](Nc1ncnc2[nH]ccc(=O)c12)c1c(Cl)c2cccc(NC3CCOC3)c2c(=O)n1-c1ccccc1 (stereo partly drawn) [Example 331, 4-(((1S)-1-(4-chloro-1-oxo-2-phenyl-8-((tetrahydrofuran-3-yl)amino)-1,2-dihydroisoquinolin-3-yl)ethyl)amino)pyrido[2,3-d]pyrimidin-5(8H)-one]
20 | 30 | 75 | -1 | 33 | C[C@H](Nc1ncnc2[nH]ccc(=O)c12)c1c(Cl)c2cccc(NC3CCOCC3)c2c(=O)n1-c1ccccc1 [Example 332, (S)-4-((1-(4-chloro-1-oxo-2-phenyl-8-((tetrahydro-2H-pyran-4-yl)amino)-1,2-dihydroisoquinolin-3-yl)ethyl)amino)pyrido[2,3-d]pyrimidin-5(8H)-one]

Reference: patent publication US20230072683A1, “PYRIDO-PYRIMIDIN DERIVATIVES AND PHARMACEUTICAL COMPOSITION, FOR USE IN PREVENTING OR TREATING PI3 KINASE RELATED DISEASES, COMPRISING SAME AS ACTIVE INGREDIENT” (BORYUNG PHARMACEUTICAL CO., LTD, priority 2019, published 2023)
